# In patent US20240293405A1, “(1H-PYRROLO[2,3-B]PYRIDIN-1-YL)PYRIMIDIN-2-YL-AMINO-PHENYL-ACRYLAMIDE INHIBITORS OF EGFR FOR USE IN THE TREATMENT OF BRAIN TUMORS” (Dana-Farber Cancer Institute, Inc., priority 2021, published 2024):
# Where two headings read alike, the source gives them in different places.
# Key:
# [1] = system: NSCLC brain metastases; test: NSCLC brain metastases in SCID mice; conditions: 25 mg/kg; […]
# [2] = Body weight over the course of treatment in mice; assay type: in vivo; conditions: 25 mg/kg; study endpoint reached within one month
# [3] = system: NCI-H1975 cells (EGFR L858R/T790M mutation); test: Cell viability assay, NCI-H1975 (CellTiter-Glo); assay type: cell-based; conditions: Homo sapiens, NCI-H1975, 72 h, read-out: IC50, cell viability
# From the text: (§1) CellTier-Glo (Promega) assay kit (https://www.promega.com/resources/protocols/technical-bulletins/0/celltiter-glo-luminescentcell-viability-assay-protocol/) was used here.
# [4] = target: ALK (Homo sapiens, UniProt Q9UM73); test: Kinase binding constant (Kd)
# Experimental: (§2) EGFR amplifications and/or mutations are common in GBM, estimated to occur in over 50% of patients.
# (§3) Compound 1 and Compound 2 (major metabolite) were evaluated in a panel of 468 human kinases and disease relevant mutant variants. Compound 1 and Compound 2 bound to few non-mutant kinases at <1% of control. […] While there is some variability between Compound 1 and Compound 2, it is clear that both compounds are very effective at binding to a large panel of mutant kinases. […] Binding constant to wild type EGFR was 4.9 nM.
# [5] = target: PDGFRA (Homo sapiens, UniProt P16234); test: Kinase binding constant (Kd)
# Experimental: as §2, §3
# [6] = target: PDGFRB (Homo sapiens, UniProt P09619); test: Kinase binding constant (Kd)
# Experimental: as §2, §3
# [7] = system: PC-9 cells (EGFR exon 19 deletion); test: Cell viability assay, PC-9 (CellTiter-Glo); assay type: cell-based; conditions: Homo sapiens, PC-9, read-out: IC50, cell viability
# From the text: as §1
# [8] = system: 293-EGFRvIII cells; test: Cell viability of 293-EGFRvIII cells (CellTiter-Glo); assay type: cell-based, human; conditions: Homo sapiens, 72 h, read-out: IC50, viability of 293-EGFRvIII cells
# Experimental: (§4) Cells were seeded in 96-well plates at a density of 1,000 cells per well and treated with two-fold serial dilutions of compounds with a starting concentration of 20 μM. Cell viability was assessed after three days of treatment by CellTiter-Glo (Promega). Curve fitting analysis and IC50 value determination were performed using GraphPad Prism 8.
# [9] = system: P-gp, Bcrp; conditions: previously published report; cited from earlier work
# [10] = system: U251-EGFRvIII cells; test: Viability/proliferation of U251-EGFRvIII cells; assay type: cell-based, human
# Experimental: as §4
# In parallel, the conventional human GBM U251 cell line was used as a surrogate model for both in vitro and in vivo studies. U251 cells were engineered to stably express EGFRvIII (U251-EGFRvIII) via retroviral-mediated gene transfer.
# Sequence of ALK (Q9UM73 19-1620): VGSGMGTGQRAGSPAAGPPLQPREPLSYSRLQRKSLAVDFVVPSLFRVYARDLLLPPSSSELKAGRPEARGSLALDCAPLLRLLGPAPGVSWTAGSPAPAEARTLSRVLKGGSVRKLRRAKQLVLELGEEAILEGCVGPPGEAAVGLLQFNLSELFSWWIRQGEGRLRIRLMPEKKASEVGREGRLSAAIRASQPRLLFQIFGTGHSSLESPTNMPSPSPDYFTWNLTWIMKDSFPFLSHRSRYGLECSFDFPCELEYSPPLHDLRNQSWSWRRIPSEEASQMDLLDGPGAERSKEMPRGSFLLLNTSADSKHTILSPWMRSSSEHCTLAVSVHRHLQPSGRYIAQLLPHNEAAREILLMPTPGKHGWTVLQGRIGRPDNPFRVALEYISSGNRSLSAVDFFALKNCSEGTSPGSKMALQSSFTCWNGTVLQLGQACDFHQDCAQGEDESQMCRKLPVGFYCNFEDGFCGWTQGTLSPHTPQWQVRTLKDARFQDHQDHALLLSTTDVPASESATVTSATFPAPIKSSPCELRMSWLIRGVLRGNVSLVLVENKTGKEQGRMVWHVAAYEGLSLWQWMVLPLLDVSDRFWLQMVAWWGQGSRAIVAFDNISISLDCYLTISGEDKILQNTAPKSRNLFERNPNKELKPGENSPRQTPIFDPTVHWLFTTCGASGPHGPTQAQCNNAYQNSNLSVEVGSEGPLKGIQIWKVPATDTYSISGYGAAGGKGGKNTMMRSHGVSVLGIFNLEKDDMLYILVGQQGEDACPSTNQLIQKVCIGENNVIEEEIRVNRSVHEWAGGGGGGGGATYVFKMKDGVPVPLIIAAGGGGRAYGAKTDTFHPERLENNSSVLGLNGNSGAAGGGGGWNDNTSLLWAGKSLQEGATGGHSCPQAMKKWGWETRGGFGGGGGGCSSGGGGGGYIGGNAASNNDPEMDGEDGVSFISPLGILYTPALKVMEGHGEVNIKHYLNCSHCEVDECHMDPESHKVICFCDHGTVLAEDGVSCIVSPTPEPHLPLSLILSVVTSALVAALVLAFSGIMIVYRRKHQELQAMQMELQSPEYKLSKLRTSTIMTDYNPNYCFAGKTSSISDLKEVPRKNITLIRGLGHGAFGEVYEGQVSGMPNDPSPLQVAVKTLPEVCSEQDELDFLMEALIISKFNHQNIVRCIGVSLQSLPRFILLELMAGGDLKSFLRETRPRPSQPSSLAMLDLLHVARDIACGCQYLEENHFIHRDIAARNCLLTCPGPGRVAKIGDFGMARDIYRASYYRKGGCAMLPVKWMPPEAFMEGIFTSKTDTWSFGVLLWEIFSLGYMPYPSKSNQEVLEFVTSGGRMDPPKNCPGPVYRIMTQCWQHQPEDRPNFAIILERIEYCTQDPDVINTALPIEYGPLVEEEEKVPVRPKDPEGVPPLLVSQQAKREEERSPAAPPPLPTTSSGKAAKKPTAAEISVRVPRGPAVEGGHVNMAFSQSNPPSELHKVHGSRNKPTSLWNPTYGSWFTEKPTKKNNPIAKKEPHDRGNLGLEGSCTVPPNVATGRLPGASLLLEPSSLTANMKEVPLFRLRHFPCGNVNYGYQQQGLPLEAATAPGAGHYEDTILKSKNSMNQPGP
# Sequence of PDGFRB (P09619 33-1106): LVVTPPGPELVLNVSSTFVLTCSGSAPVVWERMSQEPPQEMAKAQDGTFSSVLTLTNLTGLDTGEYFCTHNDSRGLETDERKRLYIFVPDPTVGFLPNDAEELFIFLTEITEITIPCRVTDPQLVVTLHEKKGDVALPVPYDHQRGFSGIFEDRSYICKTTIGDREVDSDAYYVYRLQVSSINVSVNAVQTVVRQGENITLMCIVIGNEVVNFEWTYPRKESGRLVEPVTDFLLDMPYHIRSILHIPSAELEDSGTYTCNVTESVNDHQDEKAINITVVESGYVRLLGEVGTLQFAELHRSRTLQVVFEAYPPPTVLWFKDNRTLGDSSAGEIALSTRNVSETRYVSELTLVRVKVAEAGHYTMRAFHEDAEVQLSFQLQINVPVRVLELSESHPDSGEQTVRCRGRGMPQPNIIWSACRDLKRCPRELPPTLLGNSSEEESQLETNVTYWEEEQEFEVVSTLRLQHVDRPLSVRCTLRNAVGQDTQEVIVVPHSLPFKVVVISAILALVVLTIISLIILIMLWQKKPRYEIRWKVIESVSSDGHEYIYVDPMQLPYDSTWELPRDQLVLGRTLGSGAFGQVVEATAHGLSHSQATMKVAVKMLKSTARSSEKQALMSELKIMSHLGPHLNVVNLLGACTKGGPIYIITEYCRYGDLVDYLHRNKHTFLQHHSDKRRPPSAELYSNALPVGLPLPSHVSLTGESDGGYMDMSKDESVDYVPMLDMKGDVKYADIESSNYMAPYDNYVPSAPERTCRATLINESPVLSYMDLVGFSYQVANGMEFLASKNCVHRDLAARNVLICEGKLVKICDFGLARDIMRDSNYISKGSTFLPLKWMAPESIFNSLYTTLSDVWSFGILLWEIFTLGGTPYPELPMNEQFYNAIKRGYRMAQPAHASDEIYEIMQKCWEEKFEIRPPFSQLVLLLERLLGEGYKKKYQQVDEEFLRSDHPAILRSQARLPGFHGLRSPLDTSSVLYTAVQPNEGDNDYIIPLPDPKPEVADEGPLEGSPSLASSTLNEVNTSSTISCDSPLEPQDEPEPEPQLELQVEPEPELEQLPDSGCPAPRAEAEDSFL
# Sequence of PDGFRA (P16234 24-1089): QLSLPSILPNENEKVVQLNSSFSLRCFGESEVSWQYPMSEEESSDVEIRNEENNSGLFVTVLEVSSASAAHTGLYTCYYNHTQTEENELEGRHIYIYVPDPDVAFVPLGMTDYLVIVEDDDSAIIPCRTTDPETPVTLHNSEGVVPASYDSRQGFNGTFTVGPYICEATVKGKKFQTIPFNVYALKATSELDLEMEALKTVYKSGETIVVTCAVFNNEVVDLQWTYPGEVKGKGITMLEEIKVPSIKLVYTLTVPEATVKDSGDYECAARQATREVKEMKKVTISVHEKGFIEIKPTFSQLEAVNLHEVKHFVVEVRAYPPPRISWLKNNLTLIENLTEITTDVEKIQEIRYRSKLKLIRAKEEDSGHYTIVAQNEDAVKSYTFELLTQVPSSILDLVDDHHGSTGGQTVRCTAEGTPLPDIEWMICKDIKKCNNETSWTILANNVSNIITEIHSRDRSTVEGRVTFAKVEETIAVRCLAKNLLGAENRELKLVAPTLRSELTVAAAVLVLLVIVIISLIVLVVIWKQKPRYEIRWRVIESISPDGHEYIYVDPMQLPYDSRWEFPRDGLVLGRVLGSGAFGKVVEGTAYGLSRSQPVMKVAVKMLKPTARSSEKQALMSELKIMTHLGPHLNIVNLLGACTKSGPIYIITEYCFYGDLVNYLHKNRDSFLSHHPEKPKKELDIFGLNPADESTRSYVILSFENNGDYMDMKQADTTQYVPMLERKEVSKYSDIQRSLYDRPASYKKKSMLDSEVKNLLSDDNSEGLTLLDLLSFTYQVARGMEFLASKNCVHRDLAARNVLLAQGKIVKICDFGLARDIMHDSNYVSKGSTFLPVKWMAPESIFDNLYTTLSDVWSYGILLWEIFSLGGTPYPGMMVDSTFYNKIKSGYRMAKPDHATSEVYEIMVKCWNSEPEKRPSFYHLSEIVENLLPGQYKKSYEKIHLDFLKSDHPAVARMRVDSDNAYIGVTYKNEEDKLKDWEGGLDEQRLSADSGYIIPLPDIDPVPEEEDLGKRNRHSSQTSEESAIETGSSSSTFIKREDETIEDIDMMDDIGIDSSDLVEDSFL
smiles,measurement,setting,value
"C=CC(=O)Nc1cc(Nc2nccc(-c3cn(C)c4ccccc34)n2)c(OC)cc1N(C)CCN(C)C [Osimertinib, reference compound]",time at which study endpoint was reached,[1],4 weeks
same,body weight over the course of treatment,[2],significant body weight loss
same,Kd,[4],0.069 µM
same,Kd,[5],0.74 µM
same,Kd,[6],1.5 µM
same,IC50,[7],0.0181 µM
same,IC50,[8],2.19 µM
same,Efflux Liability,[9],"P-gp, Bcrp"
same,IC50,"[10]; Homo sapiens, read-out: IC50 on U251-EGFRvIII cell proliferation",2.45 µM
same,IC50,"[10]; read-out: IC50, viability of U251-EGFRvIII cells",2.6 µM
